experiment: Solubility/stability of CTA-acid salts in water; assay type: physicochemical; conditions: CTA-acid dispersed in water at 1 wt. %, dissolved by adding the base/amine; solubility checked again after 48 hrs. at room temperature
Experimental: These new CTA-“bases” were made using the same procedure shown above (“Formation of CTA-Acid Salt(s)”) starting with CTA-acid. The stability of several amines was tested by dispersing CTA-acid in water at 1 wt. % CTA-acid, and then dissolution by adding the amine.

Soluble	Compound
no	CC(C)CCCCCCCCCOCCCN
yes	NCCOCCO
no	NCCOCCOCCN
no	O=C1CCCN1CCO
yes	NCCNCCO

Reference: patent US10280101B2, “Water soluble chain transfer agents” (The Lubrizol Corporation, priority 2015, dated 2019)
